US7514438B2, “Melanin concentrating hormone receptor antagonist” (Amgen, Inc., priority 2003, dated 2009)
pIC50: −log10 of the molar value. Like-named read-outs stand apart in the source and are kept apart here.

Legend:
[1] = target: T1, rat MCH 1 receptor (rMCH1R) (Rattus norvegicus, UniProt P97639); assay: 125I-MCH ligand binding assay, rMCH; settings: HEK 293 membranes, 0.2 nM 125I native-MCH, read-out: IC50 in the rMCH binding assay
T1 construct: expressed in transfected cells; host or cells: HEK 293 (membranes)
Experimental: (§1) Human embryonic kidney cells (293 total) expressing either human, rat, or mouse MCH receptor were harvested from 150 mm culture dishes using PBS. Spinning at 1500 rpm for 2 minutes initially pelleted cells. The resulting pellet was then homogenized in 15 mL ice cold sucrose buffer (25 mM HEPES, 0.3 M sucrose, pH 7.4) with a motorized, glass fitted, Teflon® homogenizer. The homogenate was centrifuged at 48,000×g at 4° C. for 10 minutes, resuspended in 15 mL assay buffer (25 mM HEPES, 10 mM mgCl2, 0.2% BSA, 0.1 mg/mL STI, 0.1 mg/mL Pefabloc®, 1 μM Phosphoramidon, pH 7.4) with a Tissue-Tearor® (Biospec Products) and centrifuged again at 48,000×g for 10 minutes. The pellet was homogenized for a third time in 15 mL assay buffer using the Tissue-Tearor® and again centrifuged at 48,000×g for 10 minutes. The resulting pellet was resuspended in assay buffer at a wet weight concentration of 10-20 mg/mL.
(§2) Binding assays were determined as described below using mouse, rat or human MCH 1 receptors (mMCH1R, rMCH1R, and hMCH1R, respectively) expressed in HEK 293; IC50 values were calculated.
(§3) Binding assays were performed in 96-well U-bottom plates. Membranes (100 μg tissue) were incubated at 30° C. for 90 minutes in assay buffer with various peptides in the presence of 0.2 nM ^125I native-MCH (Perkin-Elmer Life Sciences, Boston, Mass.) in 100 μL total volume. Non-specific binding was assessed in the presence of 1 μM cold native-MCH. The reaction was terminated by rapid filtration through Unfilter-96 GF/C glass fiber filter plates (FilterMate® 196 Harvester, Packard Instrument Co., Meriden, Conn.) pre-soaked in PBS/0.5% BSA, followed by three washes with 300 μL ice-cold water. Bound radioactivity was determined using a TopCount® microplate scintillation and luminescence counter (Packard Instrument Co., Meriden, Conn.). Nonlinear regression analyses of drug concentration curves were performed using GraphPad Prism® (GraphPad Software, Inc., San Diego, Calif.).

[2] = target: T2, human MCH 1 receptor (hMCH1R) (Homo sapiens, UniProt Q99705); assay: 125I-MCH ligand binding assay, hMCH; settings: HEK 293 membranes, 0.2 nM 125I native-MCH; 100 μM or less list; read-out: IC50 in the hMCH binding assay
T2 construct: expressed in transfected cells; host or cells: HEK 293 (membranes)
Experimental: as §1, §2, §3

T1 sequence (P97639 whole entry): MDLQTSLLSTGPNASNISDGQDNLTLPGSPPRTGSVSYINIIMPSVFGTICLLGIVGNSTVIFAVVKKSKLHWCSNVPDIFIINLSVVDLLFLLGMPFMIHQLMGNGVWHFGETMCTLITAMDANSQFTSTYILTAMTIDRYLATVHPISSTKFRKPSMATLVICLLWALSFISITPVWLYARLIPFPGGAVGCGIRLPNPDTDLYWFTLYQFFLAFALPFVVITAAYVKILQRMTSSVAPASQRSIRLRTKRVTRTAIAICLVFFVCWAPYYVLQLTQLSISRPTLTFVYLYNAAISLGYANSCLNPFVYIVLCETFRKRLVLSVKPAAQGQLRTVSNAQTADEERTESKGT
T2 sequence (Q99705 whole entry): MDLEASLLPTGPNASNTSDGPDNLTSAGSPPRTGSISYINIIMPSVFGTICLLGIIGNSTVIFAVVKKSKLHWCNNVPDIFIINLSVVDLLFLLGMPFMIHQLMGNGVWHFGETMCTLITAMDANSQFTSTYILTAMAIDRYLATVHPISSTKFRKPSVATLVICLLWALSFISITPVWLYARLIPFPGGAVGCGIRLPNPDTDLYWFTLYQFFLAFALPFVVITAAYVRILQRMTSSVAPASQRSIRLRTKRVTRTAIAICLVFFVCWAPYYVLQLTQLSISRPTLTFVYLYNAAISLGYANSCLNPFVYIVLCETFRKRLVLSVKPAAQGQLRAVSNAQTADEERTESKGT

| SMILES | pIC50 ([1]; 100 nM or less list) | pIC50 ([1]; 100 μM or less list) | pIC50 [2] |
| --- | --- | --- | --- |
| CCOc1ccc([C@@H](c2nnnn2-c2c(C)cccc2C)N2CCN(C/C=C/c3ccccc3)CC2)cc1 (racemic) [Compound 136, 1-[[1-(2,6-dimethylphenyl)-1H-tetrazol-5-yl]-(4-ethoxyphenyl)methyl]-4-(3-phenylallyl)piperazine] | ≥ 7.00 | ≥ 4.00 | – |
| C(=C\c1ccccc1)/CN1CCN([C@@H](c2ccccc2)c2nnnn2C2CCN(Cc3ccccc3)CC2)CC1 (racemic) [Compound 28, 1-{[1-(1-benzylpiperidin-4-yl)-1H-tetrazol-5-yl]phenylmethyl}-4-(3-phenylallyl)piperazine] | – | ≥ 4.00 | – |
| CCc1ccc([C@@H](c2nnnn2-c2c(C)cccc2C)N2CCN(C/C=C/c3ccccc3)CC2)cc1 (racemic) [Compound 127, 1-[[1-(2,6-dimethylphenyl)-1H-tetrazol-5-yl]-(4-ethylphenyl)methyl]-4-(3-phenylallyl)piperazine] | – | ≥ 4.00 | – |
| Cc1cccc(C)c1-n1nnnc1C1(N2CCN(C/C=C/c3ccccc3)CC2)CCN(C)CC1 [Compound 99, 1-{4-[1-(2,6-dimethylphenyl)-1H-tetrazol-5-yl]-1-methylpiperidin-4-yl}-4-(3-phenylallyl)piperazine] | – | ≥ 4.00 | – |
| CC(=O)Nc1ccc([C@@H](c2nnnn2-c2c(C)cccc2C)N2CCN(C/C=C/c3ccccc3)CC2)cc1 (racemic) [Compound 131, n-(4-{[1-(2,6-dimethylphenyl)-1H-tetrazol-5-yl]-[4-(3-phenylallyl)piperazin-1-yl]methyl}phenyl)acetamide] | – | ≥ 4.00 | – |
| Cc1cccc(C)c1-n1nnnc1[C@H](COCCc1ccccc1)N1CCN(C/C=C/c2ccccc2)CC1 (racemic) [Compound 85, 1-{1-[1-(2,6-dimethylphenyl)-1H-tetrazol-5-yl]-2-phenethyloxyethyl}-4-(3-phenylallyl)piperazine] | – | – | ≥ 4.00 |
| Cc1cccc(C)c1-n1nnnc1[C@H](c1ccc(Cl)cc1)N1CCN(C/C=C/c2ccccc2)CC1 [Compound 118, 1-{(4-chiorophenyl)-[1-(2,6-dimethylphenyl)-1H-tetrazol-5-yl]methyl}-4-(3-phenylallyl)piperazine] | – | ≥ 4.00 | – |
| CSc1ccc([C@@H](c2nnnn2-c2c(C)cccc2C)N2CCN(C/C=C/c3ccccc3)CC2)cc1 (racemic) [Compound 126, 1-[[1-(2,6-dimethylphenyl)-1H-tetrazol-5-yl]-(4-methylsulfanylphenyl)methyl]-4-(3-phenylallyl)piperazine] | – | ≥ 4.00 | – |
| Cc1cccc(C)c1-n1nnnc1[C@H](c1cccc(Br)c1)N1CCN(C/C=C/c2ccccc2)CC1 (racemic) [Compound 139, 1-{(3-bromophenyl)-[1-(2,6-dimethylphenyl)-1H-tetrazol-5-yl]methyl}-4-(3-phenylallyl)piperazine] | ≥ 7.00 | ≥ 4.00 | – |
| CC(C)(C)OC(=O)Cn1nnnc1[C@H](c1ccccc1)N1CCN(C/C=C/c2ccccc2)CC1 (racemic) [Compound 24, (5-{phenyl-[4-(3-phenylallyl)piperazin-1-yl]methyl}tetrazol-1-yl)acetic acid tert-butyl ester] | – | ≥ 4.00 | – |
| Cc1cccc(C)c1-n1nnnc1[C@H](c1cc(Cl)cc(Cl)c1)N1CCN(C/C=C/c2ccccc2)CC1 (racemic) [Compound 137, 1-{(3,5-dichlorophenyl)-[1-(2,6-dimethylphenyl)-1H-tetrazol-5-yl]methyl}-4-(3-phenylallyl)piperazine] | ≥ 7.00 | ≥ 4.00 | – |
| C(=C\c1ccccc1)/CN1CCN([C@@H](c2ccccc2)c2nnnn2CCC(c2ccccc2)c2ccccc2)CC1 (racemic) [Compound 27, 1-{[1-(3,3-diphenylpropyl)-1H-tetrazol-5-yl]phenylmethyl}-4-(3-phenylallyl)piperazine] | – | ≥ 4.00 | – |
| COc1cc([C@@H](c2nnnn2-c2c(C)cccc2C)N2CCN(C/C=C/c3ccccc3)CC2)ccc1OCc1ccccc1 (racemic) [Compound 129, 1-{(4-benzyloxy-3-methoxyphenyl)-[1-(2,6-dimethylphenyl)-1H-tetrazol-5-yl]methyl}-4-(3-phenylallyl)piperazine] | ≥ 7.00 | ≥ 4.00 | – |
| Cc1cccc(C)c1-n1nnnc1[C@H](c1cccc(Cl)c1)N1CCN(C/C=C/c2ccccc2)CC1 (racemic) [Compound 140, 1-{(3-chlorophenyl)-[1-(2,6-dimethylphenyl)-1H-tetrazol-5-yl]methyl}-4-(3-phenylallyl)piperazine] | ≥ 7.00 | ≥ 4.00 | – |
| Cc1ccc([C@@H](c2nnnn2-c2c(C)cccc2C)N2CCN(C/C=C/c3ccccc3)CC2)cc1C (racemic) [Compound 123, 1-{(3,4-dimethylphenyl)-[1-(2,6-dimethylphenyl)-1H-tetrazol-5-yl]methyl}-4-(3-phenylallyl)piperazine] | – | ≥ 4.00 | – |
| COc1ccc([C@@H](c2nnnn2-c2c(C)cccc2C)N2CCN(C/C=C/c3ccccc3)CC2)cc1 (racemic) [Compound 122, 1-[[1-(2,6-dimethylphenyl)-1H-tetrazol-5-yl]-(4-methoxyphenyl)methyl]-4-(3-phenylallyl)piperazine] | – | ≥ 4.00 | – |
| COc1ccc([C@@H](c2nnnn2-c2c(C)cccc2C)N2CCN(C/C=C/c3ccccc3)CC2)cc1OC (racemic) [Compound 128, 1-{(3,4-dimethoxyphenyl)-[1-(2,6-dimethylphenyl)-1H-tetrazol-5-yl]methyl}-4-(3-phenylallyl)piperazine] | – | ≥ 4.00 | – |
| Cc1cccc(C)c1-n1nnnc1[C@H](c1ccc(CC(C)C)cc1)N1CCN(C/C=C/c2ccccc2)CC1 (racemic) [Compound 130, 1-[[1-(2,6-dimethylphenyl)-1H-tetrazol-5-yl]-(4-isobutylphenyl)methyl]-4-(3-phenylallyl)piperazine] | – | ≥ 4.00 | – |
| Cc1cccc(C)c1-n1nnnc1[C@H](c1ccccn1)N1CCN(C/C=C/c2ccccc2)CC1 (racemic) [Compound 75, 1-{[1-(2,6-dimethylphenyl)-1H-tetrazol-5-yl]pyridin-2-ylmethyl}-4-(3-phenylallyl)piperazine] | – | ≥ 4.00 | – |
| Cc1cccc(C)c1-n1nnnc1[C@H](c1cccc([N+](=O)[O-])c1)N1CCN(C/C=C/c2ccccc2)CC1 (racemic) [Compound 138, 1-[[1-(2,6-dimethylphenyl)-1H-tetrazol-5-yl]-(3-nitrophenyl)methyl]-4-(3-phenylallyl)piperazine] | ≥ 7.00 | ≥ 4.00 | – |
| CCN([C@@H]1CCN(Cc2ccccc2)C1)[C@@H](c1cccc(C(F)(F)F)c1)c1nnnn1-c1c(C)cccc1C (racemic) [Compound 162, (1-benzylpyrrolidin-3-yl)-[[1-(2,6-dimethylphenyl)-1H-tetrazol-5-yl]-(3-trifluoromethylphenyl)methyl]ethylamine] | – | ≥ 4.00 | – |
| Cc1cccc(C)c1-n1nnnc1[C@H](c1ccc(C(C)C)cc1)N1CCN(C/C=C/c2ccccc2)CC1 (racemic) [Compound 125, 1-[[1-(2,6-dimethylphenyl)-1H-tetrazol-5-yl]-(4-isopropylphenyl)methyl}-4-(3-phenylallyl)piperazine] | – | ≥ 4.00 | – |
| COc1cc(/C=C/CN2CCN([C@@H](c3cccc(C(F)(F)F)c3)c3nnnn3-c3c(C)cccc3C)CC2)ccc1O (racemic) [Compound 163, 4-(3-{4-[[1-(2,6-dimethylphenyl)-1H-tetrazol-5-yl]-(3-trifluoromethylphenyl)methyl]piperazin-1-yl}propenyl)-2-methoxyphenol] | ≥ 7.00 | ≥ 4.00 | – |
| Cc1cccc(C)c1-n1nnnc1[C@H](c1cccc(C(F)(F)F)c1)N1CCN(Cc2ccc3c(c2)OCO3)CC1 (racemic) [Compound 156, 1-benzo[1,3]dioxol-5-ylmethyl-4-[[1-(2,6-dimethylphenyl)-1H-tetrazol-5-yl]-(3-trifluoromethylphenyl)methyl]piperazine] | – | ≥ 4.00 | – |
| Cc1cccc(C)c1-n1nnnc1C(c1cccc(C(F)(F)F)c1)N1CCN(CCCc2ccccc2)CC1 (racemic) [Compound 154, 1-[[1-(2,6-dimethylphenyl)-1H-tetrazol-5-yl]-(3-trifluoromethylphenyl)methyl]-4-(3-phenylpropyl)piperazine] | – | ≥ 4.00 | – |
| Cc1cccc(C)c1-n1nnnc1[C@H](c1ccc(F)c(F)c1)N1CCN(C/C=C/c2ccccc2)CC1 (racemic) [Compound 124, 1-{(3,4-difluoraphenyl)-[1-(2,6-dimethylphenyl)-1H-tetrazol-5-yl]methyl}-4-(3-phenylallyl)piperazine] | – | ≥ 4.00 | – |
